Source: PubChem BioAssay (NCI)
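Five concentrations, 48 hours, 96-well plates. GI50 marks 50% less growth. TGI denotes the concentration required for complete inhibition of growth.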

Tests used:
Assay in all cases: growth of human tumour cells (NCI), 48 h
HOP-92 NSCLC = tested on: HOP-92 NSCLC
T-47D breast = tested on: T-47D breast
IGROV1 ovarian = tested on: IGROV1 ovarian
NCI/ADR-RES ovarian = tested on: NCI/ADR-RES ovarian
SF-539 CNS = tested on: SF-539 CNS
MDA-MB-435 = tested on: MDA-MB-435
MCF7 breast = tested on: MCF7 breast
UO-31 renal = tested on: UO-31 renal
MDA-MB-468 breast = tested on: MDA-MB-468 breast
PC-3 prostate = tested on: PC-3 prostate
HCT-116 colon = tested on: HCT-116 colon
M14 melanoma = tested on: M14 melanoma
EKVX NSCLC = tested on: EKVX NSCLC
OVCAR-8 ovarian = tested on: OVCAR-8 ovarian
SK-OV-3 ovarian = tested on: SK-OV-3 ovarian
HL-60(TB) leukemia = tested on: HL-60(TB) leukemia
SR leukemia = tested on: SR leukemia
OVCAR-5 ovarian = tested on: OVCAR-5 ovarian
MDA-MB-231 breast = tested on: MDA-MB-231 breast
OVCAR-3 ovarian = tested on: OVCAR-3 ovarian
MALME-3M melanoma = tested on: MALME-3M melanoma
K-562 leukemia = tested on: K-562 leukemia
CCRF-CEM leukemia = tested on: CCRF-CEM leukemia
HCC-2998 colon = tested on: HCC-2998 colon
ACHN renal = tested on: ACHN renal
TK-10 renal = tested on: TK-10 renal
SF-295 CNS = tested on: SF-295 CNS
SF-268 CNS = tested on: SF-268 CNS
RXF 393 renal = tested on: RXF 393 renal
OVCAR-4 ovarian = tested on: OVCAR-4 ovarian
786-0 renal = tested on: 786-0 renal
NCI-H226 lung = tested on: NCI-H226 lung
SK-MEL-28 melanoma = tested on: SK-MEL-28 melanoma
HOP-62 NSCLC = tested on: HOP-62 NSCLC
NCI-H522 lung = tested on: NCI-H522 lung
RPMI-8226 leukemia = tested on: RPMI-8226 leukemia
A498 renal = tested on: A498 renal
KM12 colon = tested on: KM12 colon
DU-145 prostate = tested on: DU-145 prostate
SW-620 colon = tested on: SW-620 colon
U251 CNS = tested on: U251 CNS
NCI-H460 lung = tested on: NCI-H460 lung
A549 NSCLC = tested on: A549 NSCLC
SNB-19 CNS = tested on: SNB-19 CNS
UACC-62 melanoma = tested on: UACC-62 melanoma
CAKI-1 renal = tested on: CAKI-1 renal
NCI-H23 lung = tested on: NCI-H23 lung
MOLT-4 leukemia = tested on: MOLT-4 leukemia
HT29 colon = tested on: HT29 colon
HCT-15 colon = tested on: HCT-15 colon
LOX IMVI melanoma = tested on: LOX IMVI melanoma
HS 578T breast = tested on: HS 578T breast
SN12C renal = tested on: SN12C renal

## COc1ccc(NC(=O)Nc2nc3ccc([N+](=O)[O-])cc3s2)cc1
HOP-92 NSCLC
  GI50: 1.92 µM
  TGI: 5.97 µM
T-47D breast
  GI50: 1.67 µM
  TGI: 6.66 µM
IGROV1 ovarian
  GI50: 3.37 µM
  TGI: 15.3 µM
NCI/ADR-RES ovarian
  GI50: 2.62 µM
  TGI: 8.16 µM
SF-539 CNS
  GI50: 2.41 µM
  TGI: 5.95 µM
MDA-MB-435
  GI50: 1.92 µM
  TGI: 5.68 µM
MCF7 breast
  GI50: 2.2 µM
  TGI: 6.31 µM
UO-31 renal
  GI50: 2.51 µM
  TGI: 8.98 µM
MDA-MB-468 breast
  GI50: 1.66 µM
  TGI: 4.17 µM
PC-3 prostate
  GI50: 2.15 µM
  TGI: 8.35 µM
HCT-116 colon
  GI50: 2.52 µM
  TGI: 7.67 µM
M14 melanoma
  GI50: 2.73 µM
  TGI: 9.02 µM
EKVX NSCLC
  GI50: 2.66 µM
  TGI: 7.96 µM
OVCAR-8 ovarian
  GI50: 3.18 µM
  TGI: 13.7 µM
SK-OV-3 ovarian
  GI50: 2.37 µM
  TGI: 7.09 µM
HL-60(TB) leukemia
  GI50: 2.1 µM
  TGI: 5.84 µM
SR leukemia
  GI50: 2.52 µM
  TGI: 12.8 µM
OVCAR-5 ovarian
  GI50: 2.8 µM
  TGI: 9.95 µM
MDA-MB-231 breast
  GI50: 2.76 µM
  TGI: 7.86 µM
OVCAR-3 ovarian
  GI50: 2.15 µM
  TGI: 5.36 µM
MALME-3M melanoma
  GI50: 2.19 µM
  TGI: 6.21 µM
K-562 leukemia
  GI50: 2.71 µM
  TGI: 13 µM
CCRF-CEM leukemia
  GI50: 2.27 µM
  TGI: 7.69 µM
HCC-2998 colon
  GI50: 2.72 µM
  TGI: 9.54 µM
ACHN renal
  GI50: 2.48 µM
  TGI: 7.09 µM
TK-10 renal
  GI50: 3.66 µM
  TGI: 10.7 µM
SF-295 CNS
  GI50: 1.9 µM
  TGI: 4.3 µM
SF-268 CNS
  GI50: 2.91 µM
  TGI: 16.2 µM
RXF 393 renal
  GI50: 2.54 µM
  TGI: 7.24 µM
OVCAR-4 ovarian
  GI50: 2.84 µM
  TGI: 12.6 µM
786-0 renal
  GI50: 2.89 µM
  TGI: 11.6 µM
NCI-H226 lung
  GI50: 2.31 µM
  TGI: 6.63 µM
SK-MEL-28 melanoma
  GI50: 3.09 µM
  TGI: 11.9 µM
HOP-62 NSCLC
  GI50: 2.92 µM
  TGI: 10.7 µM
NCI-H522 lung
  GI50: 1.72 µM
  TGI: 5.94 µM
RPMI-8226 leukemia
  GI50: 1.83 µM
  TGI: 5.97 µM
A498 renal
  GI50: 1.66 µM
  TGI: 4.83 µM
KM12 colon
  GI50: 2.22 µM
  TGI: 5.92 µM
DU-145 prostate
  GI50: 3.02 µM
  TGI: 11.4 µM
SW-620 colon
  GI50: 3.07 µM
  TGI: 13.8 µM
U251 CNS
  GI50: 2.24 µM
  TGI: 5.76 µM
NCI-H460 lung
  GI50: 2.37 µM
  TGI: 5.79 µM
A549 NSCLC
  GI50: 2.23 µM
  TGI: 6.22 µM
SNB-19 CNS
  GI50: 2.85 µM
  TGI: 16.8 µM
UACC-62 melanoma
  GI50: 2.63 µM
  TGI: > 100 µM
CAKI-1 renal
  GI50: 2.08 µM
  TGI: 5.01 µM
NCI-H23 lung
  GI50: 2.22 µM
  TGI: 6.64 µM
MOLT-4 leukemia
  GI50: 2.71 µM
  TGI: 10.7 µM
HT29 colon
  GI50: 3.34 µM
  TGI: 14.8 µM
HCT-15 colon
  GI50: 2.68 µM
  TGI: 10.4 µM
LOX IMVI melanoma
  GI50: 2.42 µM
  TGI: 6.18 µM
HS 578T breast
  GI50: 2.81 µM
  TGI: 8.21 µM
SN12C renal
  GI50: 2.66 µM
  TGI: 8.64 µM
